The NIST ThermoML archive (doi:10.1021/je300853z)

Columns and labels:
[1] = for mass density / viscosity: 101.33 kPa, Liquid; for mass density: Vibrating tube method
[2] = molar heat capacity at constant pressure; settings: 101.33 kPa, Liquid, Small sample (50 mg) DSC

CCCCCCCC[n+]1ccc2ccccc2c1.N#C[S-] [2-octylisoquinolinium thiocyanate]
Settings	mass density, [1] [kg/m3]	molar heat capacity at constant pressure, [2] [J/K/mol]	viscosity, [1] [mPa·s]
278.15 K	–	510	–
283.15 K	–	513	–
288.15 K	1067.27	516	–
293.15 K	1064.44	519	–
298.15 K	1061.69	522	2388
303.15 K	1058.82	525	1612.1
308.15 K	1055.96	528	1109.5
313.15 K	1053.11	531	743.87
318.15 K	1050.26	533	513.78
323.15 K	1047.42	535	365.48
328.15 K	1044.57	537	266.77
333.15 K	1041.72	538	199.26
338.15 K	1038.94	540	152.21
343.15 K	1036.2	540	118.51
348.15 K	1033.47	–	93.83

Settings	Glass transition temperature [°C]
[1], Glass, DTA	-57.0
